Experimental data taken from US8679859B2, “Method for functionalizing materials and devices comprising such materials” (State of Oregon by and through the State Board of Higher …, priority 2007, dated 2014).

Experiments:
peanut agglutinin (PNA) = biological target: T1, peanut agglutinin (PNA) (Arachis hypogaea, UniProt P02872); assay: Carbohydrate microarray on PEO-coated glass slides, fluorescence-tagged lectin binding; settings: lectin 10 μg/ml, FIG. 30
T1 construct: purchased Molecular Probes
T1 sequence (P02872 24-273): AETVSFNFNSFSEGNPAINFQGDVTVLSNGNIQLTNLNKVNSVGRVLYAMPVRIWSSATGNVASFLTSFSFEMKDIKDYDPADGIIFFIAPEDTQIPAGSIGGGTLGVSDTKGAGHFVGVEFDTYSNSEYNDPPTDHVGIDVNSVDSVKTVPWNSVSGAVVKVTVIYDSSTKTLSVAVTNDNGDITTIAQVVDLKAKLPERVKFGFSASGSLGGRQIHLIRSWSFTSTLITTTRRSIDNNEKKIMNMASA

soybean agglutinin (SBA) = soybean agglutinin (SBA) (Glycine max, UniProt P05046); assay: as above; settings: lectin 10 μg/ml, FIG. 32
Description: The slides were subsequently irradiated under UV (7 min), and washed with PBS (pH 7.4) containing 0.1% Tween® 20 for 30 minutes and then rinsed with water to remove excess carbohydrates. After drying under a stream of nitrogen, the slides were first incubated with a solution of PBS (pH 7.4) containing 0.1% Tween® 20 and 3% BSA (w/v) for 30 minutes, and then washed with PBS (pH 7.4) containing 0.1% Tween® 20 for 20 minutes. After drying under a stream of nitrogen, the slides were incubated with Alexa Fluo 647-labeled lectins (10 μg/ml) in PBS (pH 7.4) containing 0.1% Tween® 20 overnight at room temperature. The unbound lectins were removed by gentle shaking in the same buffer for 20 minutes, after which time the slides were scanned (Ex: 633 nm; Em: 650-750 nm).
Following array preparation, binding analysis of the surfaces was performed. Fluorescence-tagged lectins were used, and fluorescence imaging was employed in developing the array binding patterns. Four different lectins were assayed: Griffonia simplicifolia II (GSII), peanut agglutinin (PNA), jack bean lectin (Con A), and soybean agglutinin (SBA).

Con A = Con A (Canavalia ensiformis, UniProt P02866); settings: free carbohydrate with Con A, isothermal microcalorimetry, Mandal et al.; cited from earlier work
jack bean lectin (Con A) = biological target: T2, jack bean lectin (Con A) (Canavalia ensiformis, UniProt P02866); assay: Carbohydrate microarray on PEO-coated glass slides, fluorescence-tagged lectin binding; settings: lectin 10 μg/ml, FIG. 31
T2 construct: purchased Molecular Probes

Chain of soybean agglutinin (SBA) (P05046 33-285): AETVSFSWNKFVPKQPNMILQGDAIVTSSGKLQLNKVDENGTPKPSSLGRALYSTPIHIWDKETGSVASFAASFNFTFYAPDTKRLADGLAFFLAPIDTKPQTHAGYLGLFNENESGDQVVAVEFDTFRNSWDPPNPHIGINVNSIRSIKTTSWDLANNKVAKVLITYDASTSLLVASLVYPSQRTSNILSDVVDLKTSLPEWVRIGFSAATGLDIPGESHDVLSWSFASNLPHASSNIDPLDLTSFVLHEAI

Compound | PNA binding pattern on microarray (fluorescence) (peanut agglutinin (PNA)) | Con A binding pattern on microarray (fluorescence) (jack bean lectin (Con A)) | also measured
[N-]=[N+]=Nc1c(F)c(F)c(C(=O)NCCOCCOCCO[C@@H]2OC(CO)[C@@H](O[C@@H]3OC(CO)[C@H](O)C(O)C3O)C(O)C2O)c(F)c1F (stereo partly drawn) [lactose] | primary ligand |  | SBA binding pattern on microarray (fluorescence) (soybean agglutinin (SBA)): showed binding
OC[C@H]1O[C@H](O[C@H]2[C@H](O)[C@@H](CO)OC(O)[C@H]2O)[C@@H](O)[C@@H](O)[C@@H]1O (stereo partly drawn) [α-1,3-mannobiose] |  |  | Ka (Con A): 142000 M⁻¹
[N-]=[N+]=Nc1c(F)c(F)c(C(=O)NCCOCCOCCO[C@H]2OC(CO)[C@@H](O)C(O)C2O)c(F)c1F (stereo partly drawn) [α-D-mannoside structures] |  | specificity of Con A for binding | 
[N-]=[N+]=Nc1c(F)c(F)c(C(=O)NCCOCCOCCO[C@@H]2OC(CO)[C@@H](O)C(O)C2O)c(F)c1F (stereo partly drawn) [β-D-glucoside] |  | low binding | 
cellobiose | lesser amounts of binding |  | 
